Reference: paper PMC12635268, “Novel antimicrobial peptides and peptide-microbiome crosstalk in Appalachian salamander skin” (NPJ Biofilms and Microbiomes, 2025)
Like-named read-outs stand apart in the source and are kept apart here. Ends that are not written are not given here.

What was measured:
[1] = test system: A. baumannii 5075; details: Week 2 (12/14/2023)
[2] = test system: K. pneumoniae 4640; details: K. pneumoniae 4640; Week 2 (12/14/2023)
[3] = test system: P. aeruginosa PA01 (Si); assay: microbe, parasite or virus in culture; type: cell-based; details: P. aeruginosa PA01 (Si), not typical ESKAPEE strain; Week 2 (12/14/2023)
Text: Supplement 41522_2025_837_MOESM13_ESM.xlsx, sheet "Table_S13_ESKAPEE-MIC" | column: Bacterial MIC (µg/mL)

[4] = test system: P. aeruginosa PA01; assay: microbe, parasite or virus in culture; type: cell-based; details: P. aeruginosa 15692 (PAO1); Week 2 (12/14/2023)
Experimental: Antimicrobial susceptibility testing of the 20 synthesized peptides against 17 bacterial strains of clinical relevance in the ESKAPEE panel was conducted using minimum inhibitory concentration (MIC) assays following the broth microdilution method outlined by Parker et al.[91]. The ESKAPEE panel is comprised of fourteen American Type Culture Collection (ATCC) strains and three Multidrug Resistant Organism Repository and Surveillance Network (MRSN) bacterial strains. These strains represent at least one drug-susceptible strain and one drug-resistant strain for each bacterium to assess drug efficacy across various resistance mechanisms. This panel is comprised of the following bacterial species and strains: E. faecium (ATCC 19434, ATCC 49224), S. aureus (ATCC 25923, ATCC 43300), K. pneumoniae (ATCC 700603, ATCC 13883, MRSN 1320), A. baumannii (ATCC 17978, ATCC 19606, MRSN 959), P. aeruginosa (ATCC 15692, ATCC 27853, MRSN 5519), E. cloacae (ATCC 13047, ATCC 35549), and E. coli (ATCC 35218, ATCC 43888). Bacteria were grown in cation-adjusted Mueller-Hinton broth (CAMHB) to achieve a final inoculum of 1 × 10⁵ CFU/mL. CAMHB is selected for its batch-to-batch reproducibility, low levels of antimicrobial inhibitors, and ability to support the growth of most bacterial pathogens.
Briefly, lyophilized peptides were dissolved in 0.2% TFA + 0.4% BSA in water to 2.56 mg/mL, ultrasonicated for 20 min, diluted 10-fold into CAMHB, and then serially diluted 2-fold in 0.02% TFA + 0.04% BSA in CAMHB and assayed at a concentration of 0.25 to 128 μg/mL. Assays were set up using the Tecan Freedom EVO liquid handling robot and software (Tecan, Switzerland) with 50 μL of bacterial inoculum and 50 μL of peptide transferred into round-bottom 96-well microtiter plates. Each plate assay was performed in duplicate and incubated at 37 °C for 20 h without agitation. Bacterial growth was assessed using the BIOMIC V3 Image Analysis system (Giles Scientific, USA) and the MIC values were determined visually according to the Clinical and Laboratory Standards Institute (CLSI) guidelines.

[5] = test system: K. pneumoniae ATCC 13883; assay: microbe, parasite or virus in culture; details: K. pneumoniae 13883; Week 2 (12/14/2023)
In short: (§1)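 Broth microdilution in cation-adjusted Mueller-Hinton broth, final inoculum 1 × 10⁵ CFU/mL, peptides 0.25 to 128 μg/mL in 0.02% TFA + 0.04% BSA. Duplicates incubated 20 h at 37 °C without agitation. MIC read visually per CLSI with image-analysis support.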

[6] = test system: E. faecium ATCC 19434; assay: microbe, parasite or virus in culture; details: E. faecium 19434; Week 2 (12/14/2023)
In short: as §1

[7] = test system: K. pneumoniae ATCC 700603; assay: microbe, parasite or virus in culture; details: K. pneumoniae 700603; Week 2 (12/14/2023)
In short: as §1

[8] = test system: E. cloacae ATCC 13047; assay: microbe, parasite or virus in culture; details: E. cloacae 13047; Week 2 (12/14/2023)
In short: as §1

[9] = test system: S. aureus ATCC 25923; assay: microbe, parasite or virus in culture; details: S. aureus 25923; Week 2 (12/14/2023)
In short: as §1

[10] = test system: E. faecium ATCC 49224; assay: microbe, parasite or virus in culture; details: E. faecium 49224; Week 2 (12/14/2023)
In short: as §1

[11] = test system: A. baumannii ATCC 17978; assay: microbe, parasite or virus in culture; details: A. baumannii 17978; Week 2 (12/14/2023)
In short: as §1

[12] = test system: E. coli ATCC 35218; assay: microbe, parasite or virus in culture; details: E. coli 35218; Week 2 (12/14/2023)
In short: as §1

[13] = test system: P. aeruginosa ATCC 27853; assay: microbe, parasite or virus in culture; details: P. aeruginosa 27853; Week 2 (12/14/2023)
In short: as §1

[14] = test system: E. coli ATCC 43888; assay: microbe, parasite or virus in culture; details: E. coli 43888; Week 2 (12/14/2023)
In short: as §1

[15] = test system: S. aureus ATCC 43300; assay: microbe, parasite or virus in culture; details: S. aureus 43300; Week 2 (12/14/2023)
In short: as §1

[16] = test system: A. baumannii ATCC 19606; assay: microbe, parasite or virus in culture; details: A. baumannii 19606; Week 2 (12/14/2023)
In short: as §1

[17] = test system: P. aeruginosa MRSN 5519; assay: microbe, parasite or virus in culture; details: P. aeruginosa 5519; Week 2 (12/14/2023)
In short: as §1

[18] = test system: E. cloacae ATCC 35549; assay: microbe, parasite or virus in culture; details: E. cloacae 35549; Week 2 (12/14/2023)
In short: as §1

[19] = set-up: method as in Biomatik (vendor); details: 1.0 mg peptide in 1.0 ml solvent; peptides synthesized by Biomatik; ref Biomatik (vendor); cited from earlier work
[20] = test system: Batrachochytrium dendrobatidis Bd-GPL strain JEL404; details: for Bd inhibition score (percent inhibition), mean: slope of growth, positive = inhibition, negative = no inhibition
Experimental: Bd-peptide challenge assays were conducted with the crude peptides extracted from the salamander skin secretions and with the 20 synthesized peptides. We followed methods by Pereria et al.[49] to conduct assays with the crude peptides using Bd-GPL strain JEL404 at 1 × 10^6 zoospores/mL. Briefly, skin peptide samples were pooled together based on species-site-injection (Table 1). Skin peptides samples were serially diluted 2-fold in MilliQ (Ultrapure Type 1) water and assayed at a concentration of 2.35–75 μg/mL based on starting peptide concentration available. For synthesized peptides, we conducted assays from 15.6 to 500 μg/ml. In both assays, we quantified percent inhibition of each well using slope of growth[90] in which positive values indicate inhibition and negative values indicate no inhibition.

[21] = synthesized peptide 15.625 μg/mL
[22] = synthesized peptide 31.25 μg/mL

## EPVPPGFTPFR [PrAd-Eb13]
[1]
  Bacterial MIC: >128.000 µg/mL
[2]
  Bacterial MIC: >128.000 µg/mL
[3]
  Bacterial MIC: >128.000 µg/mL
[4]
  Bacterial MIC: >128.000 µg/mL
[5]
  Bacterial MIC: >128.000 µg/mL
[6]
  Bacterial MIC: >128.000 µg/mL
[7]
  Bacterial MIC: >128.000 µg/mL
[8]
  Bacterial MIC: >128.000 µg/mL
[9]
  Bacterial MIC: >128.000 µg/mL
[10]
  Bacterial MIC: >128.000 µg/mL
[11]
  Bacterial MIC: >128.000 µg/mL
[12]
  Bacterial MIC: >128.000 µg/mL
[13]
  Bacterial MIC: >128.000 µg/mL
[14]
  Bacterial MIC: >128.000 µg/mL
[15]
  Bacterial MIC: >128.000 µg/mL
[16]
  Bacterial MIC: >128.000 µg/mL
[17]
  Bacterial MIC: >128.000 µg/mL
[18]
  Bacterial MIC: >128.000 µg/mL
[19]
  Suggest solvent (solubility): 1.0mg peptide soluble in 1.0ml H2O
[20]; [21]
  Bd inhibition score (percent inhibition), mean: -15.8993%
[20]; [22]
  Bd inhibition score (percent inhibition), mean: -14.7717%
[20]; synthesized peptide 62.5 μg/mL
  Bd inhibition score (percent inhibition), mean: -15.0589%
[20]; synthesized peptide 125 μg/mL
  Bd inhibition score (percent inhibition), mean: -17.1018%
[20]; synthesized peptide 250 μg/mL
  Bd inhibition score (percent inhibition), mean: -17.5569%
[20]; synthesized peptide 500 μg/mL
  Bd inhibition score (percent inhibition), mean: -12.696%

## FPRPPGFTPFR [PrAd-Eb12]
[1]
  Bacterial MIC: >128.000 µg/mL
[2]
  Bacterial MIC: >128.000 µg/mL
[3]
  Bacterial MIC: >128.000 µg/mL
[4]
  Bacterial MIC: >128.000 µg/mL
[5]
  Bacterial MIC: >128.000 µg/mL
[6]
  Bacterial MIC: >128.000 µg/mL
[7]
  Bacterial MIC: >128.000 µg/mL
[8]
  Bacterial MIC: >128.000 µg/mL
[9]
  Bacterial MIC: >128.000 µg/mL
[10]
  Bacterial MIC: >128.000 µg/mL
[11]
  Bacterial MIC: >128.000 µg/mL
[12]
  Bacterial MIC: >128.000 µg/mL
[13]
  Bacterial MIC: >128.000 µg/mL
[14]
  Bacterial MIC: >128.000 µg/mL
[15]
  Bacterial MIC: >128.000 µg/mL
[16]
  Bacterial MIC: >128.000 µg/mL
[17]
  Bacterial MIC: >128.000 µg/mL
[18]
  Bacterial MIC: >128.000 µg/mL
[19]
  Suggest solvent (solubility): 1.0mg peptide soluble in 1.0ml H2O
[20]; [21]
  Bd inhibition score (percent inhibition), mean: -2.358%
[20]; [22]
  Bd inhibition score (percent inhibition), mean: 4.727%
[20]; synthesized peptide 62.5 μg/mL
  Bd inhibition score (percent inhibition), mean: 5.096%
[20]; synthesized peptide 125 μg/mL
  Bd inhibition score (percent inhibition), mean: 3.64%
[20]; synthesized peptide 250 μg/mL
  Bd inhibition score (percent inhibition), mean: 0.8166%
[20]; synthesized peptide 500 μg/mL
  Bd inhibition score (percent inhibition), mean: 9.489%
[20]; synthesized peptide, concentrations down to 31.25 μg/mL
  mild Bd inhibition, average across concentrations: 1–9.5%
